# Assay results published in ChEMBL document CHEMBL6083195, “Cornulacin: a new isoflavone from Cornulaca monacantha and its isolation, structure elucidation and cytotoxicity through EGFR-mediated apoptosis” (RSC Med Chem, 2024).
# Assays:
# A2780 [1] = assay: Cytotoxicity against human A2780 cells by MTT assay; assay type: functional, cell-based
# PANC-1 = assay: Cytotoxicity against human PANC-1 cells by MTT assay; assay type: functional, cell-based
# KB = assay: Cytotoxicity against human KB cells; assay type: functional, cell-based
# WISH = assay: Cytotoxicity against human WISH cells by MTT assay; assay type: functional, cell-based
# A2780 [2] = assay: Induction of apoptosis in human A2780 cells assessed as total apoptotic cell death at IC50 incubated for 48 hrs by Annexin V-FITC/PI staining based flow cytometry (reference value: 0.955 %); assay type: functional
# A2780 [3] = assay: Induction of apoptosis in human A2780 cells assessed as early apoptotic cells at IC50 incubated for 48 hrs by Annexin V-FITC/PI staining based flow cytometry (reference value: 0.72 %); assay type: functional
# A2780 [4] = assay: Induction of apoptosis in human A2780 cells assessed as late apoptotic cells at IC50 incubated for 48 hrs by Annexin V-FITC/PI staining based flow cytometry (reference value: 0.23 %); assay type: functional
# A2780 [5] = assay: Induction of apoptosis in human A2780 cells assessed as necrotic cells at IC50 incubated for 48 hrs by Annexin V-FITC/PI staining based flow cytometry (reference value: 1.52 %); assay type: functional
# A2780 [6] = assay: Induction of cell cycle arrest in human A2780 cells assessed as accumulation at G1 phase at IC50 incubated for 48 hrs by flow cytometry (reference value: 41.8 %); assay type: functional
# A2780 [7] = assay: Induction of cell cycle arrest in human A2780 cells assessed as accumulation at S phase at IC50 incubated for 48 hrs by flow cytometry (reference value: 30.6 %); assay type: functional
# A2780 [8] = assay: Induction of cell cycle arrest in human A2780 cells assessed as accumulation at G2/M phase at IC50 incubated for 48 hrs by flow cytometry (reference value: 27.5 %); assay type: functional
# A2780 [9] = assay: Induction of apoptosis in human A2780 cells assessed as fold increase in Bax mRNA level at IC50 incubated for 48 hrs by RT-PCR analysis relative to control; assay type: functional
# A2780 [10] = assay: Induction of apoptosis in human A2780 cells assessed as fold increase in P53 mRNA level at IC50 incubated for 48 hrs by RT-PCR analysis relative to control; assay type: functional
# A2780 [11] = assay: Induction of apoptosis in human A2780 cells assessed as fold increase in caspase-3 mRNA level at IC50 incubated for 48 hrs by RT-PCR analysis relative to control; assay type: functional
# A2780 [12] = assay: Induction of apoptosis in human A2780 cells assessed as fold increase in caspase-8 mRNA level at IC50 incubated for 48 hrs by RT-PCR analysis relative to control; assay type: functional
# A2780 [13] = assay: Induction of apoptosis in human A2780 cells assessed as fold increase in caspase-9 mRNA level at IC50 incubated for 48 hrs by RT-PCR analysis relative to control; assay type: functional
# A2780 [14] = assay: Induction of apoptosis in human A2780 cells assessed as fold decrease in Bcl-2 mRNA level at IC50 incubated for 48 hrs by RT-PCR analysis relative to control; assay type: functional
compound,measurement,setting,value
O=C(/C=C/c1ccc(O)c(O)c1)NCCc1ccc(O)cc1,IC50,A2780 [1],11.2 µM
same,IC50,PANC-1,7.2 µM
COc1cc(/C=C/C(=O)NCCc2ccc(O)c(OC)c2)ccc1O,IC50,A2780 [1],2.9 µM
same,IC50,PANC-1,7 µM
COc1cc(OC)c(-c2coc3c4c(c(OC)cc3c2=O)OC(C)(C)C=C4)cc1OC,IC50,KB,2 µM
COc1cc(/C=C(\Oc2ccc(/C=C/C(=O)NCCc3ccc(O)cc3)cc2OC)C(=O)NCCc2ccc(O)cc2)ccc1O,IC50,A2780 [1],25.1 µM
same,IC50,PANC-1,19.3 µM
COCc1c(O)cc2occ(-c3ccccc3O)c(=O)c2c1OC,IC50,A2780 [1],2.1 µM
same,IC50,PANC-1,6.4 µM
same,IC50,WISH,≥ 100 µM
same,Activity,A2780 [2],43.65%
same,Activity,A2780 [3],29.17%
same,Activity,A2780 [4],14.48%
same,Activity,A2780 [5],7.54%
same,Activity,A2780 [6],46.2%
same,Activity,A2780 [7],43.3%
same,Activity,A2780 [8],10.48%
same,fold change (FC),A2780 [9],5.4
same,fold change (FC),A2780 [10],6.7
same,fold change (FC),A2780 [11],8.1
same,fold change (FC),A2780 [12],6.09
same,fold change (FC),A2780 [13],8.08
same,fold change (FC),A2780 [14],0.3
COc1cc([C@H]2c3cc(O)c(OC)cc3/C(=C\C(=O)NCCc3ccc(O)cc3)[C@H]2C(=O)NCCc2ccc(O)cc2)ccc1O,IC50,A2780 [1],31.2 µM
same,IC50,PANC-1,24.1 µM
C#Cc1cccc(Nc2ncnc3cc(OCCOC)c(OCCOC)cc23)c1 [ERLOTINIB],IC50,A2780 [1],1.13 µM
same,IC50,PANC-1,2.17 µM
COc1cc(/C=C/C(=O)NCCc2ccc(O)cc2)ccc1O [N-TRANS-FERULOYL TYRAMINE],IC50,A2780 [1],9.1 µM
same,IC50,PANC-1,3.4 µM
